Measured values published in paper PMC5055294 (PLoS ONE, 2016).
Each block holds one molecule with its values, some of them ahead of it.

Key:
CCRL2 [1] = test: Radiolabelled chemerin internalization (acid-wash), CCRL2; type: cell-based, human; settings: CCRL2, CHO-K1; incubation at 28°C
Procedure: Cell surface receptor was detected by flow cytometry using a saturating concentration of antibodies specific for CMKLR1 (●), GPR1 (◯) or CCRL2 (△). Results were normalized for the fluorescence of unstimulated cells (100%) and for background fluorescence (0%). Data represent the mean ± S.E.M. of three independent experiments. […] Then, cells were either left at 4°C or shifted to 28°C to allow receptor internalization. After 90 minutes, cells were acid-washed and the amount of radioactivity remaining associated with the cells was measured. Data represent the mean ± S.E.M. of three independent experiments.

CCRL2 [2] = test: G protein BRET assay, CCRL2; type: cell-based, human; settings: CCRL2, HEK293T; 100 nM chemerin, 1 minute
Procedure: (§1) G protein activation was assayed by BRET as previously described. Briefly, plasmids encoding G protein biosensors and receptors of interest were co-transfected into HEK293T cells by using the calcium phosphate method. Forty-eight hours after transfection, cells were washed twice with PBS, detached and resuspended in PBS plus 0.1% (w/v) glucose at room temperature. Cells were then distributed (80 μg of proteins per well) in a 96-well microplate (Optiplate, PerkinElmer). BRET^2 between RLuc8 and GFP10 was measured 1 min after addition of coelenterazine 400a/Deep blue C (5 μM, Gentaur). BRET readings were collected using an Infinite F200 reader (Tecan). The BRET signal was calculated as the ratio of emission of GFP10 (510–540 nm) to RLuc8 (370–450 nm).
(§2) As controls, cells expressing the α2c adrenergic receptor (Gαi/o) were stimulated with UK14304; cells expressing the AT1 angiotensin receptor (Gα11/q) were stimulated with angiotensin II; cells expressing the β2 adrenergic receptor (Gαs) were stimulated with isoproterenol; cells expressing thromboxane A2 receptor (Gα12/13) were stimulated with U46619. Data represent the mean ± S.E.M. of three to six independent experiments. Statistical significance was assessed using Tukey's test (***P < 0.0001).

GPR44/CRTH2 = test: G protein BRET assay, negative control GPR44/CRTH2; type: cell-based; settings: HEK293T, 100 nM chemerin, 1 minute
Procedure: as §1, §2

GPR33 = test: G protein BRET assay, negative control GPR33; type: cell-based; settings: HEK293T, 100 nM chemerin, 1 minute
Procedure: as §1, §2

FPR1 = test: G protein BRET assay, negative control FPR1; type: cell-based; settings: HEK293T, 100 nM chemerin, 1 minute
Procedure: as §1, §2

CCRL2 [3] = test: β-arrestin BRET recruitment assay, CCRL2; type: cell-based, human; settings: β-arrestin1-Rluc or β-arrestin2-Rluc, CCRL2-Venus, HEK293T; 100 nM chemerin; 25°C
Procedure: β-arrestin recruitment was measured by a BRET proximity assay as previously described. Briefly, plasmids encoding Rluc-β-arrestin 2 and receptors fused to Venus were cotransfected into HEK293T cells by using the calcium phosphate method. Twenty-four hours post-transfection, cells were collected and seeded in 96-well microplates (165306, Nunc) and cultured for an additional 24 h. Cells were then rinsed once with PBS and incubated in PBS plus 0.1% (w/v) glucose at 25°C to slow down kinetics of arrestin recruitment and improve temporal resolution. BRET^1 between RLuc and YFP was measured after the addition of coelenterazine h (5 μM, Promega). […] The BRET signal was calculated as the ratio of emission of YFP (520–570 nm) to RLuc (370–480 nm).
Fig 6 Recruitment of β-arrestins by CMKLR1 and GPR1. […] Data represent the mean ± S.E.M. of three independent experiments.

CCRL2 [4] = test: Intracellular calcium mobilization (aequorin), CCRL2; type: cell-based, human; settings: CCRL2, CHO-K1, aequorin
Procedure: Calcium mobilization was measured by an aequorin-based assay as previously described. Briefly, CHO-K1 cells stably expressing apoaequorin and the receptors of interest were incubated for 4 h in the dark in the presence of 5 μM coelenterazine h (Promega) and then diluted before use to reach the appropriate cell density.
(§3) A. Calcium mobilization was measured in CHO-K1 cells using the aequorin-based functional assay. […] The results were normalized for the basal luminescence of the cells in absence of agonist (0%) and the maximal response obtained for each cell line with 10 μM ATP (100%). […] Data represent the mean ± S.E.M. of three independent experiments C. […] Detection of total ERK1/2 by Western blotting was used to ascertain that an equal amount of material was loaded in each lane (lower panel). A typical experiment out of three performed independently is shown.

CCRL2 [5] = test: ERK1/2 phosphorylation in CHO-K1 cells, CCRL2; type: cell-based, human; settings: 300 nM chemerin, immunoblot
Procedure: CHO-K1 and MEF cells stably expressing receptors of interest were starved for 12–18 h in serum-free medium prior to stimulation. […] Whole cell lysates were resolved on 10% Tris/Tricine polyacrylamide gels and transferred to nitrocellulose membranes. Phosphorylated ERK1/2 and total ERK1/2 were detected by using rabbit polyclonal anti-phospho-ERK1/2 (Cell Signaling #4370, 1:1,000) and anti-ERK1/2 (Cell Signaling #4695S, 1:2,000) antibodies. Chemiluminescent detection was performed using ECL-Plus reagent (Perkin Elmer).
as §3

CCRL2 [6] = settings: cited from earlier work; for calcium mobilization and chemotaxis through CCRL2: ref [20], not confirmed by other groups [23]
Description: (§4) […]. CMKLR1 is coupled to the Gi/o family of G proteins and in cells ...

CMKLR1 = settings: cited from earlier work
Description: as §4

GPR1 [7] = settings: ref [13], cited from earlier work
Description: as §4

[8] = test system: leukocyte populations that express CMKLR1; settings: ex vivo; dendritic cells, macrophages and natural killer cells; ref [1],[8]–[10]; cited from earlier work
Description: as §4

CCRL2 [9] = target: T1, CCRL2 (human, UniProt O00421 1-344); test: cell-based or functional assay
T1 sequence (looked up): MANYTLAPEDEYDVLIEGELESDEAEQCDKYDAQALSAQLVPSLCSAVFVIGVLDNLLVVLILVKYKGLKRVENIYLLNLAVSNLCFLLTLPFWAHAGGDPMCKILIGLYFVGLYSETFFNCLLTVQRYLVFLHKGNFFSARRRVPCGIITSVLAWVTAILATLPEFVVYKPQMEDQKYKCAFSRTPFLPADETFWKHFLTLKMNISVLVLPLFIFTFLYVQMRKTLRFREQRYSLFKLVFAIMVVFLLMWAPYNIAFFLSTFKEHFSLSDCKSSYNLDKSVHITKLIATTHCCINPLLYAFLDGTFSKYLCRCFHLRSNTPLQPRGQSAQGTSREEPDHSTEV

GPR1 [10] = target: T2, GPR1 (human, UniProt P46091 1-355); test: radioligand binding; competition: CHO-K1 cells expressing the receptor with 0.1 nM [125I]-chemerin as tracer and increasing concentrations of unlabelled chemerin or chemerin 9; 50 mM HEPES pH 7.4, 1 mM CaCl2, 5 mM MgCl2, 250 mM sucrose, 0.5% BSA; 30 min at room temperature; filtration; settings: one partner purified
T2 construct: GPR1, human chemerin receptor, expressed on CHO-K1 cells; The functional rows with G protein biosensors (HEK293T, transfected) and with MEF cells also use this molecule; source: CHO-K1, stably expressing (Clone 8), on cells
T2 sequence (looked up): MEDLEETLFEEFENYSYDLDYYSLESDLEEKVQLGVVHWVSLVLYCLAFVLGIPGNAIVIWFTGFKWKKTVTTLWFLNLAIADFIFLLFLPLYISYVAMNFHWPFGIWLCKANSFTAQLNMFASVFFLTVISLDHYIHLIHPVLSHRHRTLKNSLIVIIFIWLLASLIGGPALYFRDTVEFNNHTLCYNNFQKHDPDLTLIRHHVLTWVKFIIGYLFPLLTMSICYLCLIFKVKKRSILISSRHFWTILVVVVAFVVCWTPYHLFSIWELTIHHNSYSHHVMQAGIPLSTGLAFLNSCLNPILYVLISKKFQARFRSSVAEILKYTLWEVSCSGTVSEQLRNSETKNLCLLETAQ

CCRL2 [11] = target: T1, CCRL2; test: as above; settings: one partner purified

Molecule: [^125I]-chemerin: R&DSystems, custom labelling performed by Perkin Elmer; tracer
- radioactivity lost after acid-wash (chemerin internalization) (CCRL2 [1]): nearly all the radioactivity associated to cells expressing CCLR2 was lost after the acid-wash procedure

Molecule: Chemerin: small chemotactic protein, natural ligand of CMKLR1; purchased from R&D Systems
- G protein activation (CCRL2 [2]): none of the G proteins tested were activated by GPR1 or CCRL2 upon chemerin stimulation
- G protein BRET signal (Gαi/o biosensors) (GPR44/CRTH2): generated signals of much weaker magnitude
- G protein BRET signal (Gαi/o biosensors) (GPR33): generated signals of much weaker magnitude
- G protein BRET signal (Gαi/o biosensors) (FPR1): generated signals of much weaker magnitude
- β-arrestin recruitment (CCRL2 [3]): CCRL2 does not recruit β-arrestins
- calcium mobilization (CCRL2 [4]): generated no detectable signals
- phosphorylation of ERK1/2 (CCRL2 [5]): generated no detectable signals
- calcium mobilization or ligand internalization (CCRL2 [6]; CCRL2, chemerin, ref [11]): does not induce calcium mobilization or ligand internalization
- recruitment of β-arrestin2 to CMKLR1 (CMKLR1; introduction, no reference given): induces the recruitment of β-arrestin2 to CMKLR1
- signaling in cells expressing CMKLR1 (CMKLR1; ref [7]): inhibits cAMP production and promotes phospholipase C activation, IP3 release, calcium mobilization as well as activation of PI3K and MAPK pathways
- calcium mobilization (GPR1 [7]; GPR1, recombinant cell lines): activate weakly calcium mobilization in recombinant cell lines
- down-regulation of GPR1 (GPR1 [7]): induces its rapid down-regulation
- chemotaxis [8]: promotes chemotaxis of leukocyte populations that express CMKLR1

Molecule: CCL2: chemokine
- calcium mobilization and chemotaxis through CCRL2 (CCRL2 [6]): promotes calcium mobilization and chemotaxis

Molecule: CCL7: chemokine
- calcium mobilization and chemotaxis through CCRL2 (CCRL2 [6]): promotes calcium mobilization and chemotaxis

B1: CCL5: chemokine (protein, UniProt P13501 24-91, looked up)
C-C motif chemokine 5: SPYSSDTTPCCFAYIARPLPRAHIKEYFYTSGKCSNPAVVFVTRKNRQVCANPEKKWVREYINSLEMS
- calcium mobilization and chemotaxis through CCRL2 (CCRL2 [6]): promotes calcium mobilization and chemotaxis

B2: CCL8: chemokine (protein, UniProt P80075 24-99, looked up)
C-C motif chemokine 8: QPDSVSIPITCCFNVINRKIPIQRLESYTRITNIQCPKEAVIFKTKRGKEVCADPKERWVRDSMKHLDQIFQNLKP
- calcium mobilization and chemotaxis through CCRL2 (CCRL2 [6]): promotes calcium mobilization and chemotaxis

- t1/2 of down-regulation of the receptor from the cell surface (FACS, CHO-K1, 100 nM chemerin) (CCRL2 [9]): > 1 h
- pIC50 (GPR1 [10]): 9.9
- pIC50 (CCRL2 [11]): 9.1
B3: Chemerin (unlabelled) (ligand, human, UniProt Q99969 21-157, looked up)
chain: ELTEAQRRGLQVALEEFHKHPPVQWAFQETSVESAVDTPFPAGIFVRLEFKLQQTSCRKRDWKKPECKVRPNGRKRKCLACIKLGSEDKVLGRLVHCPIETQVLREAEEHQETQCLRVQRAGEDPHSFYFPGQFAFS
notes: chemerin, human; also called full length chemerin; full size chemerin; source: bought: R&D Systems
